This note sets out measurements from patent US9090944B2, “Biomarker DACT1 for gastric cancer” (The Chinese University of Hong Kong, priority 2011, dated 2015).

Molecules are shown by their SMILES.

One experiment has as its system AGS. In words: Demethylation treatment with 5-Aza, DACT1 expression by semiquantitative RT-PCR. The format is cell-based, human. To be noted: 2 μM 5-Aza for 5 days. On the procedure:
(§1) Semiquantitative RT-PCR was performed in a total volume of 25 μL reaction containing GeneAmp 1×PCR Buffer II (Applied Biosystems), 2.5 mM MgCl2, 200 μM each of dNTP, 200 nM each of primers, 0.5 U of AmpliTaq Gold DNA polymerase (Applied Biosystems) and 30˜50 ng cDNA. The PCR program started with an initial denaturation at 95° C. for 10 min, followed by 32-35 cycles (94° C. for 30 sec, annealing temperature for 30 sec, and 72° C. for 30 sec) of amplification, with a final extension at 72° C. for 10 min. The PCR bands were visualized under ultraviolet light and photographed. The expression of the target gene was normalized by the expression of house keeping gene β-actin, which served as an internal control. Cells were seeded at a density of […]/100-mm dishes and grew for 24 hr. Cells were then treated with 2 μM 5-aza-2′-deoxycytidine (“5-Aza”) (Sigma-Aldrich) for 5 days. The 5-Aza was replenished every day. The gene expression of DACT1 was evaluated using semiquantitative RT-PCR.

A further experiment has as its system KatoIII. The experiment is described as above. The format is cell-based, human. The settings on record: 2 μM 5-Aza for 5 days. On the procedure: as §1

Take `Nc1ncn([C@H]2C[C@H](O)[C@@H](CO)O2)c(=O)n1` [5-Aza, 5-aza-2′-deoxycytidine]: the “DACT1 expression after demethylation treatment” value in the experiment with AGS and in the experiment on KatoIII was “restored DACT1 expression” in each case.
